Drawing on patent publication EP0256847B1, “Oxytocin and vasopressin antagonists” (Merck & Co., Inc., priority 1986, dated 1988), this text covers IC50 for two molecules.

Each structure is given as a SMILES string. *1 amine or outer side, *2 acyl side, *3 side chain or, on linkers, in order; H or OH if unused. Where a SMILES comes first, the peptide text is derived from it. [ ]: non-standard residue; d: D form. ξ: configuration not given here. X2 = O=C([C@@H]1CCCNN1[*:1])[*:2]; ξN(OH)Ile(3ξ) = CCC(C)C(NO)C(=O)O; X1 = O=C([C@H]1CCCNN1[*:1])[*:2]; dNMeF = CN[C@H](Cc1ccccc1)C(=O)O; NMeF = CN[CH](Cc1ccccc1)C(=O)O; X3 = O=C(C1CCCNN1[*:1])[*:2]

This test has as its target oxytocin receptor. In words: [³H]Oxytocin binding assay, crude membrane preparation of rat uterus. Conditions: concentration of test compound to inhibit [³H]oxytocin binding by 50%; rat uterus membranes; read-out: IC₅₀ [³H]OT (uterus). The text has this: Oxytocin receptors have been identified in mammalian uterine tissue through the use of in vitro radioligand binding assays. These receptor binding sites mediate the contractile response of the uterine myometrium to oxytocin. […] The assay uses a crude membrane preparation of rat uterus as the source of oxytocin receptors. […]

On to `CC[C@H](C)[C@@H]1NC(=O)[C@@H](Cc2ccccc2)NC(=O)[C@@H]2CCCN2C(=O)[C@@H](Cc2ccccc2)N(C)C(=O)[C@@H]2CCCNN2C(=O)[C@H]2CCCNN2C1=O` [Example 9] (cyclo([X1][X2][dNMeF]P[dF]I)), for which the IC50 stood at 170 ± 15 nM.

Take `CCC(C)C1C(=O)N2NCCCC2C(=O)N2NCCCC2C(=O)N(C)C(Cc2ccccc2)C(=O)N2CCCC2C(=O)NC(Cc2ccccc2)C(=O)N1O` (centres unmarked) [Formula I] (cyclo([ξN(OH)Ile(3ξ)][X3][X3][NMeF]PF); configuration not given here): the IC50 was 370 ± 70 nM.
